Reference: patent US7476522B2, “Method for producing γ-linolenic acids from a ciliate culture by adding suitable precursor molecules to said culture medium” (Nutrinova Nutrition Specialties & Food Ingredients GmbH, priority 2001, dated 2009)
Where two headings read alike, the source gives them in different places.

Tests used:
[1] = test system: Tetrahymena thermophila B1868VII; conditions: for lipid content versus standard fermentation: NaAc feed
Protocol: (§1) Fermentations were carried out in a 1 l fermenter (700 ml working volume), 5 l fermenter (3 l working volume) and a 13 l fermenter (10 l working volume). The fermenters were equipped as standard with a pH electrode, a pO2 electrode, an aeration ring, a stirrer shaft with disk vein agitator, feed line for acid/alkali, feed line for feeding, inoculation fittings and sampling.
(§2) Fermentation conditions were as specified in Table 2.
(§3) To determine the biomass dry matter, 5 ml of cell culture were centrifuged for 10 min at 3400 g and 4° C., the supernatant was decanted and the cell pellet was frozen at −80° C. The frozen biomass was lyophilized and the weight of the biomass dry matter was determined.
(§4) The cell density was determined using the CASY 1 Cell Counter+Analyser System, Model TTC, Schärfe System. For measurement, the cells were diluted (1:500) in a weak CASY electrolyte solution and transported through a capillary of 150 μm diameter. The cells in a range of 15-50 μm particle size were counted.
(§5) The nonpolar lipid constituents (neutral lipids) were extracted from the biomass dry matter with n-hexane. For one batch, approximately 500 mg of biomass dry matter were stirred in 5 ml of n-hexane for 1 h at 60° C., then centrifuged for 2 min at 2700 g and the supernatant was purified by filtering off suspended matter. For the filtration, a Pasteur Pipette filled with cotton wool was used, having a fill height of approximately 1 cm. The cell residue for the first extraction was extracted a further time with 5 ml of solvent, the biomass was centrifuged off and the supernatant filtered. The purified organic phases of the two extractions were combined, the solvent was completely evaporated on a rotary evaporator and the amount of extracted lipid was determined by weighing.
(§6) The fatty acid spectrum was determined by means of a gas chromatograph (HP GC 6890) equipped with a flame ionization detector (Hewlett-Packard Company, Wilmington, USA). The column used was an FFAP (Free Fatty Acid Phase) Permbond (Macherey & Nagel GmbH, Düren). The fatty acids were identified by comparison with the retention times of fatty acid methyl ester standards. On the basis of the known concentration of the standard, the concentration of fatty acids in the samples could be determined.
(§7) 30-70 mg of the lyophilized biomass dry matter (see determination of biomass) were weighed out and were admixed with 1 ml of 20% strength methanolic HCl and 1 ml of methanolic standard solution (1 mg/ml). To liberate the fatty acids and transesterify them into fatty acid methyl esters, the samples were stirred in a closed test tube for two hours at 60° C. in a water bath and cooled to room temperature. To neutralize the sample, 1 ml of aqueous saturated sodium hydrogen carbonate solution was then added and the sample was mixed carefully. The fatty acid methyl esters were extracted by adding n-hexane. The batch was then mixed vigorously and phase separation was achieved by centrifuging for 2 min at 4300 rpm. About ⅔ of the upper organic phase was taken off and 1 μl of the sample was injected onto the GC column and analyzed (see also Table 5).
(§8) The fermentations were carried out in a 1-l fermenter containing 700 ml of MM-Var medium.

Tetrahymena = conditions: supplying acetate; cited from earlier work
[2] = test system: Tetrahymena thermophila B1868VII
Protocol: as §1, §2, §3, §4, §5, §6, §7, §8

Tetrahymena pyriformis = conditions: cited from earlier work
[3] = acetate added before inoculation and also during culture

In the case of CC(=O)[O-].[Na+] [NaAc, sodium acetate], the “cell growth (cell density and BDM)” value [1] is reported as “adverse effect on the cell growth”, the “formation of GLA product by volume” value [1] is reported as “impaired” and the NL/BDM ([1]; Feed 0.02 g/l of NaAc, 46 h) is reported as 8 %(w/w). The NL/BDM ([1]; Feed 0.02 g/l of NaAc, 70 h) was 12 %(w/w), the NL/BDM ([1]; Feed 0.4 g/l of NaAc, 46 h) was 9 %(w/w) and the NL/BDM ([1]; Feed 0.4 g/l of NaAc, 70 h) was 13 %(w/w). For the same molecule, the “GLA content of the biomass dry matter” value ([1]; NaAc fed during culturing) was “unchanged”, the “lipid content versus standard fermentation” value ([1]; after 70 h) was “no significant increase” and the “lipid content versus standard fermentation” value ([1]; culture time 46 h) was “no difference”. For the same molecule, the “composition of the fatty acids” value (Tetrahymena) was “not changed”, the “cell growth (cell density and biomass dry matter)” value [2] was “adversely affected cell growth” and the “formation of GLA product by volume” value [2] was “decreased”. For the same molecule, the “GLA content of the biomass dry matter” value ([2]; 0.5 and 1.0 g/l NaAc in basal medium) was “not altered”, the NL/BDM ([2]; MM-VAR containing 0.5 g/l of NaAc, 46 h) was 8 %(w/w) and the NL/BDM ([2]; MM-VAR containing 0.5 g/l of NaAc, 70 h) was 17 %(w/w). The NL/BDM ([2]; MM-VAR containing 1.0 g/l of NaAc, 46 h) was 11 %(w/w), the NL/BDM ([2]; MM-VAR containing 1.0 g/l of NaAc, 70 h) was 17 %(w/w) and the “GLA content in the neutral lipid versus standard fermentation” value ([2]; NaAc added to MM-Var basal medium) was “only slight differences”. For the same molecule, the NL content ([2]; NaAc added to MM-Var basal medium, after 70 h, standard […]%) was 17 % (w/w), the “lipid content versus standard fermentation” value ([2]; NaAc in basal medium, culture time 46 h) was “no significant difference” and the GLA yield overall [2, 3] was “impairment”. For the same molecule, the “fatty acid spectrum and GLA content of the biomass” value [2, 3] was “no marked change”, the growth [2, 3] was “poorer growth” and the cell count (Tetrahymena pyriformis; 0.1% acetate added to basal medium which does not contain glucose, […]10^5 without) was 1.6×10^5 cells per ml. For the same molecule, the cell count (Tetrahymena pyriformis; acetate, basal medium which contains glucose, 1.85×10^5 without) was 1.9×10^5 cells per ml.
